These results are taken from publication PMC4847154, “Sticky swinging arm dynamics: studies of an acyl carrier protein domain from the mycolactone polyketide synthase” (Biochemical Journal, 2016).

Broadly, the Tm is the temperature at the midpoint of the melting transition.

The target in assay [1] is T1, mACP9 (ACP domain from MLSA2, module 9 of the mycolactone PKS) (Mycobacterium ulcerans, UniProt Q6MZA5).
T1 construct: excised ACP domain, residues 2050-2140; N-terminal His6-tag cleaved by thrombin leaving GSHM; E. coli Tuner(DE3); monomer; Ppant attachment at Ser2096
As to the kind of experiment: circular dichroism thermal denaturation. The conditions noted are these: absolute Tm. Format: binding.

Assay [2] deals with T1, mACP9 (ACP domain from MLSA2, module 9 of the mycolactone PKS). As to the kind of experiment: solution NMR structure. The format is binding. The conditions noted are these: covalent at Ser2096; nonpolar pocket between helix α2 and turns α2′ and α3′; phosphate buffer pH 7.5, 283 K.

`CC(C)(COP(=O)(O)O)[C@@H](O)C(=O)NCCC(=O)NCCS` [holo, 4′-phosphopantetheine]: the Tm in assay [1] (covalent at Ser2096 (holo form), 20 mM sodium hydrogen phosphate, 50 mM NaF, pH 7.5, apo reference in the same sentence) is 59 °C.

For the molecule “hexanoyl-mACP9 (hexanoyl-phosphopantetheine group)”, the Tm in assay [1] (covalent at Ser2096 (hexanoyl-Ppant), buffer as above, apo and holo references in the same sentence) came to 58 °C.

With `CCCCCCCC(=O)SCCNC(=O)CCNC(=O)[C@H](O)C(C)(C)COP(=O)(O)O` [octanoyl, octanoyl-phosphopantetheine group], the “solution NMR structure” value in assay [2] is reported as “final ensemble for octanoyl-mACP9 were deposited in the Protein Data Bank under ID code 5HV8”. Besides, the Tm in assay [1] (covalent at Ser2096 (octanoyl-Ppant), buffer as above, apo and holo references in the same sentence) was 57 °C.
